Laboratory results as given in patent US20260325417A1, “TOPICAL SKIN COMPOSITION CONTAINING 1,3-PROPANEDIOL AS ACTIVE INGREDIENT FOR MAINTAINING MICROBIOME BALANCE IN SKIN” (ACTIVON CO.,LTD., priority 2022, published 2026).

How the values were obtained:
S. aureus = assay: Comparison of diol compounds, growth of harmful bacteria; assay type: cell-based, Staphylococcus aureus
Description: (§1) FIG. 4 illustrates the results of a comparative analysis of the effects of diol compounds, specifically 1,3-propanediol, 2-methyl-1,3-propanediol, 1,3-butanediol, 2,3-butanediol, 1,2-pentanediol, and 1,2-hexanediol on the growth of harmful bacteria (upper graph) and beneficial bacteria (lower graph). FIG. 4A: 1,3-propanediol, FIG. 4B: 2-methyl-1,3-propanediol; FIG. 4C: 1,3-butanediol; FIG. 4D: 2,3-butanediol; FIG. 4E: 1,2-pentanediol; FIG. 4F: 1,2-Hexanediol.
(§2) • 1) Staphylococcus epidermidis ATCC 12228 and Staphylococcus aureus ATCC 6538 strains were obtained from ThermoFisher Scientific and cultured in tryptic soy broth (culture conditions: 32° C. for 18 hours). After culturing, they were diluted with 0.85% NaCl to adjust the absorbance (600 nm) to 0.5-0.6. • 2) 1,3-propanediol was obtained from Sigma-Aldrich. • 3) 2-methyl-1,3-propanediol, 1,3-butanediol, 2,3-butanediol, 1,2-pentanediol, and 1,2-hexanediol were all obtained from Sigma-Aldrich. • 4) Fructan was obtained from Sigma-Aldrich. • 5) Yeast extract was obtained from Sigma-Aldrich.

S. epidermidis = assay: Comparison of diol compounds, growth of beneficial bacteria; assay type: cell-based, Staphylococcus epidermidis; design: key to Effect on the growth of beneficial bacteria (S. epidermidis): ++: Growth promotion; +: No effect; −: Growth inhibition; − −: 50% or more growth inhibition
Description: as §1, §2

Compound	Effect on the growth of harmful bacteria (S. aureus) (S. aureus; diol compound 0.1 wt %)	Effect on the growth of harmful bacteria (S. aureus) (S. aureus; diol compound 1 wt %)	Effect on the growth of harmful bacteria (S. aureus) (S. aureus; diol compound 5 wt %)	Effect on the growth of harmful bacteria (S. aureus) (S. aureus; diol compound 10 wt %)	Effect on the growth of harmful bacteria (S. aureus) (S. aureus; diol compound 20 wt %)	Effect on the growth of beneficial bacteria (S. epidermidis) (S. epidermidis; diol compound 0.1 wt %)	Effect on the growth of beneficial bacteria (S. epidermidis) (S. epidermidis; diol compound 1 wt %)	Effect on the growth of beneficial bacteria (S. epidermidis) (S. epidermidis; diol compound 5 wt %)	Effect on the growth of beneficial bacteria (S. epidermidis) (S. epidermidis; diol compound 10 wt %)	Effect on the growth of beneficial bacteria (S. epidermidis) (S. epidermidis; diol compound 20 wt %)
CCCCC(O)CO (centres unmarked) [1,2-hexanediol]	+	++	+++ (50% or more inhibition)	+++ (50% or more inhibition)	+++ (50% or more inhibition)	++	−	− − (50% or more growth inhibition)	− − (50% or more growth inhibition)	− − (50% or more growth inhibition)
CCCC(O)CO (centres unmarked) [1,2-pentanediol]	+	+	+++ (50% or more inhibition)	+++ (50% or more inhibition)	+++ (50% or more inhibition)	++	−	− − (50% or more growth inhibition)	− − (50% or more growth inhibition)	− − (50% or more growth inhibition)
CC(O)CCO (centres unmarked) [1,3-butanediol]	+	+	++	++	+++ (50% or more inhibition)	++	−	−	− − (50% or more growth inhibition)	− − (50% or more growth inhibition)
CC(O)C(C)O (centres unmarked) [2,3-butanediol]	+	+	++	+++ (50% or more inhibition)	+++ (50% or more inhibition)	++	−	− − (50% or more growth inhibition)	− − (50% or more growth inhibition)	− − (50% or more growth inhibition)
CC(CO)CO [2-methyl-1,3-propanediol]	+	+	++	+++ (50% or more inhibition)	+++ (50% or more inhibition)	+	+	−	− − (50% or more growth inhibition)	− − (50% or more growth inhibition)
